In US4016159A, “Acylamino-cephem-carboxylic acids containing an amidino or guanidino group in the molecule” (Hoechst Aktiengesellschaft, priority 1973, dated 1977):
Values after ≈ are worked out from the molar mass of the structure shown. Like-named read-outs stand apart in the source and are kept apart here.

Tests used:
Format in all cases: cell-based
[1] = tested on: Staphylococcus aureus 285; test: Minimum inhibition concentration (MIC), Table 1
Text: (§1) Minimum inhibition concentration (MIC) in γ/ml
Germ: Staphylococcus aureus 285

Streptococcus pyogenes A = test: Minimum inhibition concentration (MIC), Table 3; settings: Germ: Streptococcus pyogenes A; for MIC: read-out: Minimum inhibition concentration MIC
Text: Minimum inhibition concentration MIC in γ/ml
Germ: Streptococcus pyogenes A

Streptococcus D = test: Minimum inhibition concentration (MIC), Table 4; settings: Germ: Streptococcus D; for MIC: Streptococcus, read-out: Minimum inhibition concentration (MIC)
Text: as §1

[2] = Staphylococcus aureus, 285, Germ: Staphylococcus aureus 285, read-out: Minimum inhibition concentration (MIC)
[3] = Staphylococcus aureus, 285, read-out: Minimum inhibition concentration (MIC)

Cc1csc(SCC2=C(C(=O)O)N3C(=O)C(NC(=O)Cc4ccc(C5=NCCN5)cc4)C3SC2)n1 (stereo not shown) [Example 10, 3-[(4-methyl-thiazole-2-yl)-thiomethyl]-7-[4-(imidazoline-2-yl)-phenylacetamido]-Δ 3-cephem-4-carboxylic acid]
MIC [1, 2]: 0.5 to 1.25 µg/mL (≈ 0.944 to 2.36 µM) | MIC (Streptococcus pyogenes A): 0.000391 to 0.0078 µg/mL (≈ 0.000738 to 0.0147 µM) | MIC (Streptococcus D): 10 to 50 µg/mL (≈ 18.9 to 94.4 µM)

Cn1nnnc1SCC1=C(C(=O)O)N2C(=O)C(NC(=O)Cc3ccc(C4=NCCCN4)cc3)C2SC1 (stereo not shown) [Example 87, 3-[(1-methyl-1H-tetrazole-5-yl)-thiomethyl]-7-[4-(1,4,5,6-tetrahydropyrimide-2-yl)-phenylacetamido]-Δ 3-cephem-4-carboxylic acid]
MIC [1, 2]: 1.6 to 2.5 µg/mL (≈ 3.03 to 4.73 µM)

N=C(N)c1ccc(OCC(=O)NC2C(=O)N3C(C(=O)O)=C(CSc4nnc(-c5ccccc5)o4)CSC23)cc1 (stereo not shown) [Example 48, 3-[(5-phenyl-1,3,4-oxadiazole-2-yl)-thiomethyl]-7-(4-amidinophenoxyacetamido)-Δ 3-cephem-4-carboxylic acid]
MIC [1, 2]: 0.156 to 0.391 µg/mL (≈ 0.275 to 0.69 µM) | Minimum inhibition concentration (MIC) (Streptococcus D): 0.196 to 6.25 µg/mL

Cc1csc(SCC2=C(C(=O)O)N3C(=O)C(NC(=O)Cc4ccc(NC(=N)N)cc4)C3SC2)n1 (stereo not shown) [Example 7]
MIC [1, 2]: 0.5 to 1.25 µg/mL (≈ 0.964 to 2.41 µM) | MIC (Streptococcus D): 10 to 50 µg/mL (≈ 19.3 to 96.4 µM)

CCCc1nnc(SCC2=C(C(=O)O)N3C(=O)C(NC(=O)COc4ccc(C(=N)N)cc4)C3SC2)o1 (stereo not shown) [Example 40, 3-[(5-n-propyl-1,3,4-oxadiazole-2-yl)-thiomethyl]-7-(4-amidinophenoxyacetamido)-Δ 3-cephem-4-carboxylic acid]
MIC [1, 2]: 0.156 to 0.391 µg/mL (≈ 0.293 to 0.734 µM) | MIC (Streptococcus pyogenes A): 0.008 to 0.0156 µg/mL (≈ 0.015 to 0.0293 µM)

CCc1csc(SCC2=C(C(=O)O)N3C(=O)C(NC(=O)Cc4ccc(C5=NCCN5)cc4)C3SC2)n1 (stereo not shown) [Example 115, 3-[(4-ethyl-thiazole-2-yl)-thiomethyl]-7-[4-(imidazoline-2-yl)-phenylacetamido]-Δ3-cephem-4-carboxylic acid]
MIC [1, 2]: 1.6 to 2.5 µg/mL (≈ 2.94 to 4.6 µM) | MIC (Streptococcus pyogenes A): 0.000391 to 0.0078 µg/mL (≈ 0.000719 to 0.0143 µM) | MIC (Streptococcus D): 10 to 50 µg/mL (≈ 18.4 to 92 µM)

Cc1n[nH]c(SCC2=C(C(=O)O)N3C(=O)C(NC(=O)Cc4ccc(C5=NCCCN5)cc4)C3SC2)n1 (stereo not shown) [Example 17, 3-[(methyl-1,2,4,-triazole-3-yl)-thiomethyl]-7-[4-(1,4,5,6-tetrahydropyrimide-2-yl)-phenylacetamido]-Δ 3-cephem-4-carboxylic acid]
MIC [1, 2]: 1.6 to 2.5 µg/mL (≈ 3.03 to 4.74 µM) | MIC (Streptococcus D): 10 to 50 µg/mL (≈ 19 to 94.8 µM)

Cc1nnc(SCC2=C(C(=O)O)N3C(=O)C(NC(=O)Cc4ccc(C5=NCCCN5)cc4)C3SC2)o1 (stereo not shown) [Example 78, 3-[(5-methyl-1,3,4-oxadiazole-2-yl)-thiomethyl]-[4-(1,4,5,6-tetrahydropyrimide-2-yl)-phenylacetamido]-Δ 3-cephem-4-carboxylic acid]
MIC [1, 2]: 0.5 to 1.25 µg/mL (≈ 0.946 to 2.36 µM) | MIC (Streptococcus pyogenes A): 0.008 to 0.0156 µg/mL (≈ 0.0151 to 0.0295 µM)

O=C(Cc1ccc(C2=NCCCN2)cc1)NC1C(=O)N2C(C(=O)O)=C(CSC3=NNC(c4ccccc4)=CS3)CSC12 (stereo not shown) [Example 99, 3-[(5-phenyl-4H-1,3,4-thiadiazine-2-yl)-thiomethyl]-7[4-(1,4,5,6-tetrahydropyrimide-2-yl)-phenylacetamido]-Δ3-cephem-4-carboxylic acid]
MIC [1, 2]: 0.5 to 1.25 µg/mL (≈ 0.805 to 2.01 µM) | MIC (Streptococcus pyogenes A): 0.008 to 0.0156 µg/mL (≈ 0.0129 to 0.0251 µM) | MIC (Streptococcus D): 10 to 50 µg/mL (≈ 16.1 to 80.5 µM)

CCCc1nnc(SCC2=C(C(=O)O)N3C(=O)C(NC(=O)Cc4ccc(C5=NCCCN5)cc4)C3SC2)s1 (stereo not shown) [Example 79, 3-[(5-n-propyl-1,3,4-thiadiazole-2-yl)-thiomethyl]-7-[4-(1,4,5,6-tetrahydropyrimide-2-yl)-phenylacetamido]-Δ 3-cephem-4-carboxylic acid]
MIC [1, 2]: 0.5 to 1.25 µg/mL (≈ 0.873 to 2.18 µM) | MIC (Streptococcus pyogenes A): 0.008 to 0.0156 µg/mL (≈ 0.014 to 0.0272 µM) | MIC (Streptococcus D): 10 to 50 µg/mL (≈ 17.5 to 87.3 µM)

CCCc1nnc(SCC2=C(C(=O)O)N3C(=O)C(NC(=O)COc4ccc(C5=NCCN5)cc4)C3SC2)s1 (stereo not shown) [Example 37, 3-[(5-n-propyl-1,3,4-thiadiazole-2-yl)-thiomethyl]-7-[4-(imidazoline-2-yl)-phenoxyacetamido]-Δ 3-cephem-4-carboxylic acid]
MIC [1, 2]: 0.5 to 1.25 µg/mL (≈ 0.87 to 2.18 µM) | MIC (Streptococcus pyogenes A): 0.000391 to 0.0078 µg/mL (≈ 0.00068 to 0.0136 µM) | MIC (Streptococcus D): 0.196 to 6.25 µg/mL (≈ 0.341 to 10.9 µM)

N=C(N)c1ccc(OCC(=O)NC2C(=O)N3C(C(=O)O)=C(CSC4=NCCS4)CSC23)cc1 (stereo not shown) [Example 30, 3-[(Δ2-thiazolidine-2-yl)-thiomethyl]-7-(4-amidinophenoxyacetamido)-Δ3-cephem-4-carboxylic acid]
MIC [1, 2]: 0.5 to 1.25 µg/mL (≈ 0.985 to 2.46 µM) | MIC (Streptococcus pyogenes A): 0.000391 to 0.0078 µg/mL (≈ 0.00077 to 0.0154 µM) | MIC (Streptococcus D): 10 to 50 µg/mL (≈ 19.7 to 98.5 µM)

COc1cc(C(=N)N)ccc1OCC(=O)NC1C(=O)N2C(C(=O)O)=C(CSc3nccs3)CSC12 (stereo not shown) [Example 129, 3-[(1,3-thiazole-2-yl)thiomethyl]-7-(4-amidino-2-methoxy-phenoxyacetamido)-Δ3-cephem-4-carboxylic acid]
MIC [1, 2]: 0.156 to 0.391 µg/mL (≈ 0.291 to 0.73 µM) | MIC (Streptococcus pyogenes A): 0.008 to 0.0156 µg/mL (≈ 0.0149 to 0.0291 µM)

3-[(5-methyl-1,3,4-thiadiazole-2-yl)-thiomethyl]-7-[4-(imidazoline-2-yl)-2-methoxyphenoxy-acetamido]-Δ3-cephem-4-carboxylic acid [Example 126]
Minimum inhibition concentration (MIC) ([1]; Germ: Staphylococcus aureus 285): 0.5 to 1.25 µg/mL | Minimum inhibition concentration (MIC) (Streptococcus pyogenes A): 0.008 to 0.0156 µg/mL | Minimum inhibition concentration (MIC) (Streptococcus D): 10 to 50 µg/mL

Cc1nnc(SCC2=C(C(=O)O)N3C(=O)C(NC(=O)COc4ccc(C5=NCCN5)cc4)C3SC2)o1 (stereo not shown) [Example 74, 3-[(5-methyl-1,3,4-oxadiazole-2-yl)-thiomethyl]-7-[4-(imidazoline-2-yl)-phenoxyacetamido]-Δ 3-cephem-4-carboxylic acid]
MIC [1, 2]: 0.5 to 1.25 µg/mL (≈ 0.942 to 2.36 µM) | MIC (Streptococcus pyogenes A): 0.008 to 0.0156 µg/mL (≈ 0.0151 to 0.0294 µM)

CC1(C)S[C@@H]2[C@H](NC(=O)COc3ccccc3)C(=O)N2[C@H]1C(=O)O [Penicillin-V-K, reference compound]
MIC [1, 3]: 125 µg/mL (≈ 357 µM)

Cn1nnnc1SCC1=C(C(=O)O)N2C(=O)C(NC(=O)COc3ccc(C4=NCCCN4)cc3)C2SC1 (stereo not shown) [Example 93, 3-[(1-methyl-1-H-tetrazol-5-yl)-thiomethyl]-7-[4-(1,4,5,6-tetrahydropyrimide-2-yl)-phenoxyacetamido-]-Δ3-cephem-4-carboxylic acid]
MIC (Streptococcus D): 10 to 50 µg/mL (≈ 18.4 to 91.8 µM)

CC1(C)S[C@@H]2[C@H](NC(=O)[C@H](N)c3ccccc3)C(=O)N2[C@H]1C(=O)O [Ampicillin, reference compound]
MIC [1, 2]: 100 µg/mL (≈ 286 µM)

Cc1csc(SCC2=C(C(=O)O)N3C(=O)C(NC(=O)Cc4ccc(C5=NCCCN5)cc4)C3SC2)n1 (stereo not shown) [Example 15, 3-[(4-methyl-thiazole-2-yl)-thiomethyl]-7-[4-(1,4,5,6-tetrahydropyrimide-2-yl)-phenylacetamido]-Δ 3-cephem-4-carboxylic acid]
MIC [1, 2]: 1.6 to 2.5 µg/mL (≈ 2.94 to 4.6 µM) | MIC (Streptococcus D): 10 to 50 µg/mL (≈ 18.4 to 92 µM)

Cc1nnc(SCC2=C(C(=O)O)N3C(=O)C(NC(=O)COc4ccc(C5=NCCCN5)cc4)C3SC2)o1 (stereo not shown) [Example 76, 3-[(5-methyl-1,3,4-oxadiazole-2-yl)-thiomethyl]-7-[4-(1,4,5,6-tetrahydropyrimide-2-yl)-phenoxy-acetamido]-Δ 3-cephem-4-carboxylic acid]
MIC [1, 2]: 0.5 to 1.25 µg/mL (≈ 0.918 to 2.3 µM) | MIC (Streptococcus D): 10 to 50 µg/mL (≈ 18.4 to 91.8 µM)

CCc1nnc(SCC2=C(C(=O)O)N3C(=O)C(NC(=O)Cc4ccc(C5=NCCCN5)cc4)C3SC2)n1N (stereo not shown) [Example 104, 3-[(4-amino-5-ethyl-1,2,4-triazole-3-yl)-thiomethyl]-7-[4-(1,4,5,6-tetrahydropyrimide-2-yl)-phenylacetamido-] -Δ3-cephem-4-carboxylic acid]
MIC [1, 2]: 1.6 to 2.5 µg/mL (≈ 2.87 to 4.49 µM)

CCCCc1nnc(SCC2=C(C(=O)O)N3C(=O)C(NC(=O)COc4ccc(C(=N)N)cc4)C3SC2)o1 (stereo not shown) [Example 66, 3-[(5-n-butyl-1,3,4-oxadiazole-2-yl)-thiomethyl]-7-(4-amidinophenoxyacetamido)-Δ 3-cephem-4-carboxylic acid]
MIC [1, 2]: 0.5 to 1.25 µg/mL (≈ 0.915 to 2.29 µM) | MIC (Streptococcus pyogenes A): 0.008 to 0.0156 µg/mL (≈ 0.0146 to 0.0285 µM)

N=C(N)c1ccc(CC(=O)NC2C(=O)N3C(C(=O)O)=C(CSC4=NCCS4)CSC23)cc1 (stereo not shown) [Example 90, 3-[2-thiazoline-2-yl-thiomethyl]-7-[4-amidino-phenylacetamido]-Δ 3-cephem-4-carboxylic acid]
MIC [1, 2]: 0.156 to 0.391 µg/mL (≈ 0.317 to 0.795 µM) | MIC (Streptococcus pyogenes A): 0.000391 to 0.0078 µg/mL (≈ 0.000795 to 0.0159 µM)

COc1cc(C(=N)N)ccc1OCC(=O)NC1C(=O)N2C(C(=O)O)=C(CSc3nc(C)cs3)CSC12 (stereo not shown) [Example 130, 3-[(4-methyl-1,3-thiazole-2-yl)-thiomethyl]-7-(4-amidino-2-methoxy-phenoxyacetamido)-Δ3-cephem-4-carboxylic acid]
MIC [1, 2]: 0.156 to 0.391 µg/mL (≈ 0.284 to 0.711 µM) | MIC (Streptococcus pyogenes A): 0.008 to 0.0156 µg/mL (≈ 0.0146 to 0.0284 µM)

CC1(C)S[C@@H]2[C@H](NC(=O)Cc3ccccc3)C(=O)N2[C@H]1C(=O)O [Penicillin-G-Na, reference compound]
MIC [1, 3]: 125 µg/mL (≈ 374 µM)

Cc1nnc(SCC2=C(C(=O)O)N3C(=O)C(NC(=O)Cc4ccc(C(=N)N)cc4)C3SC2)s1 (stereo not shown) [Example 45, 3-[(5-methyl-1,3,4-thiadiazole-2-yl)-thiomethyl]-7-(4-amidinophenylacetamido)-Δ 3-cephem-4-carboxylic acid]
MIC [1, 2]: 0.156 to 0.391 µg/mL (≈ 0.309 to 0.775 µM) | MIC (Streptococcus pyogenes A): 0.000391 to 0.0078 µg/mL (≈ 0.000775 to 0.0155 µM)

CCCCc1nnc(SCC2=C(C(=O)O)N3C(=O)C(NC(=O)COc4ccc(C(=N)N)cc4)C3SC2)s1 (stereo not shown) [Example 67, 3-[(5-n-butyl-1,3,4-thiadiazole-2-yl)-thiomethyl]-7-(4-amidinophenoxyacetamido)-Δ 3-cephem-4-carboxylic acid]
MIC [1, 2]: 0.5 to 1.25 µg/mL (≈ 0.889 to 2.22 µM)

Cn1ccnc1SCC1=C(C(=O)O)N2C(=O)C(NC(=O)Cc3ccc(C4=NCCN4)cc3)C2SC1 (stereo not shown) [Example 123, 3-[(1-methylimidazole-2-yl)-thiomethyl]-7-[4-(imidazoline-2-yl)-phenylacetamido]-Δ 3-cephem-4-carboxylic acid]
MIC [1, 2]: 1.6 to 2.5 µg/mL (≈ 3.12 to 4.88 µM)

Cc1nnc(SCC2=C(C(=O)O)N3C(=O)[C@@H](NC(=O)Cn4cnnn4)[C@H]3SC2)s1 [Cephazolin, reference compound]
MIC (Streptococcus D): 100 µg/mL (≈ 220 µM)

CCCCc1nnc(SCC2=C(C(=O)O)N3C(=O)C(NC(=O)Cc4ccc(C5=NCCCN5)cc4)C3SC2)s1 (stereo not shown) [Example 77, 3-[(5-n-butyl-1,3,4-thiadiazole-2-yl)-thiomethyl]-7-[4-(1,4,5,6-tetrahydropyrimide-2-yl)-phenylacetamido]-Δ 3-cephem-4-carboxylic acid]
MIC [1, 2]: 0.5 to 1.25 µg/mL (≈ 0.852 to 2.13 µM) | MIC (Streptococcus pyogenes A): 0.008 to 0.0156 µg/mL (≈ 0.0136 to 0.0266 µM)
